Here are results for 15 molecules from US11358971B2, “Prodrugs of modulators of the NMDA receptor” (H. Lundbeck A/S, priority 2019, dated 2022).

The nature of one data set: MDR1-MDCKII permeability assay Papp(AB). In kind it is in vitro ADME. The note with it: dog, MDCK-MDR1, parent compounds, A to B, 60-minute incubation at 37° C., pH 7.4. The method, then: MDR1-MDCKII Permeability Assay Papp(AB)
MDR1-MDCKII cells (obtained from Piet Borst at the Netherlands Cancer Institute) were seeded onto […] (PET) in 96-well BD insert systems at 2.5×10^5 cells/mL until to 4-7 days for confluent cell monolayer formation.
Test compounds were diluted with the transport buffer (HBSS with 10 mM HEPES, added 1% BSA, pH 7.4) from DMSO stock solution to a concentration of 0.5 μM (DMSO: 0.4%) and applied to the apical or basolateral side of the cell monolayer. Permeation of the test compounds from A to B direction or B to A direction was determined in triplicate over a 60-minute incubation at 37° C. and 5% CO2 with a relative humidity of 95%. In addition, the efflux ratio of each compound was also determined. Test and reference compounds were quantified by LC/MS/MS analysis based on the peak area ratio of analyte/IS.
Reference compounds: Fenoterol (conc: 2 μM) was used as low permeability marker and Propranolol (conc: 2 μM) was used as high permeability marker in A to B Permeability, furthermore was bi-directional permeability of a P-glycoprotein substrate (digoxin) included.
The apparent permeability coefficient Papp (cm/s) was calculated using the equation: Papp=(dCr/dt)×Vr/(A×C0) (1) Where dCr/dt is the cumulative concentration of compound in the receiver chamber as a function of time (μM/s); Vr is the solution volume in the receiver chamber (0.05 mL on the apical side; 0.25 mL on the basolateral side); A is the surface area for the transport, i.e. 0.0804 cm^2 for the area of the monolayer; C0 is the initial concentration in the donor chamber (μM).
The efflux was calculated using the equation: Efflux ratio=Papp(BA)/Papp(AB) (2)
The mass balance (Recovery) was calculated. The mass balance is defined as: the sum of the compound recovered from the acceptor chamber and the compound remaining in the donor chamber at the end of the experiment, divided by the initial donor amount. The mass balance should be as high as possible. Criterion: Recovery <50% is insufficient.
To evaluate the integrity of the cell monolayer, Lucifer Yellow permeability was measured in one direction (A to B). The percentage of Lucifer Yellow was calculated in control wells as an estimation of the overall cell membrane integrity. The wells are considered fully acceptable if % Lucifer Yellow is less than 2%.
The experiments for the prodrugs were the same as for the parent compounds exemplified in Table 3a.
For orientation: Papp A→B means how fast a substance crosses the layer from the apical side. As for `N[C@H](CNC(=O)c1cc2nccc(C(F)(F)F)c2s1)C(=O)O` [Compound 1f, (R)-2-amino-3-(7-(trifluoromethyl)thieno[3,2-b]pyridine-2-carboxamido) propanoic acid], the Papp A→B at 60 min, 0.5 µM stood at 1.03 ×10⁻⁶ cm/s.
`Cc1cnc2cc(C(=O)NC[C@@H](N)C(=O)O)sc2c1C` [Compound 1l, (R)-2-amino-3-(6,7-dimethylthieno[3,2-b]pyridine-2-carboxamido)propanoic acid]: the Papp A→B at 60 min, 0.5 µM came out at 0.47 ×10⁻⁶ cm/s.

Staying with this data set, now noted: dog, MDCK-MDR1, prodrug compounds, A to B, 60-minute incubation at 37° C., pH 7.4.
On to `COC(=O)[C@H](N)CNC(=O)c1cc2nccc(C(F)F)c2s1` [Compound 2a, Methyl (R)-2-amino-3-(7-(difluoromethyl)thieno[3,2-b]pyridine-2-carboxamido)propanoate], for which the apical-to-basolateral permeability (Papp A→B) at 60 min, 0.5 µM is 8.36 ×10⁻⁶ cm/s.
Turning to `COC(=O)[C@H](N)CNC(=O)c1cc2nccc(C3CC3)c2s1` [Compound 2b, Methyl (R)-2-amino-3-(7-cyclopropylthieno[3,2-b]pyridine-2-carboxamido) propanoate], the Papp A→B at 60 min, 0.5 µM turned out to be 9.25 ×10⁻⁶ cm/s.
For `CCOC(=O)[C@H](N)CNC(=O)c1cc2nccc(C)c2s1` [Compound 2d, Ethyl (R)-2-amino-3-(7-methylthieno[3,2-b]pyridine-2-carboxamido)propanoate], the apical-to-basolateral permeability (Papp A→B) at 60 min, 0.5 µM is 15.2 ×10⁻⁶ cm/s.
For `CCCOC(=O)[C@H](N)CNC(=O)c1cc2nccc(C)c2s1` [Compound 2e, Propyl (R)-2-amino-3-(7-methylthieno[3,2-b]pyridine-2-carboxamido)propanoate], the apparent permeability from apical to basolateral (Papp A→B) at 60 min, 0.5 µM amounted to 10.3 ×10⁻⁶ cm/s.
With `Cc1ccnc2cc(C(=O)NC[C@@H](N)C(=O)OC3CC3)sc12` [Compound 2g, Cyclopropyl (R)-2-amino-3-(7-methylthieno[3,2-b]pyridine-2-carboxamido)propanoate], the Papp A→B at 60 min, 0.5 µM stood at 7.11 ×10⁻⁶ cm/s.
For `CCCCOC(=O)[C@H](N)CNC(=O)c1cc2nccc(C)c2s1` [Compound 2h, Butyl (R)-2-amino-3-(7-methylthieno[3,2-b]pyridine-2-carboxamido)propanoate], the Papp A→B at 60 min, 0.5 µM was found to be 6.11 ×10⁻⁶ cm/s.
Take `Cc1ccnc2cc(C(=O)NC[C@@H](N)C(=O)OCC(C)C)sc12` [Compound 2i, Isobutyl (R)-2-amino-3-(7-methylthieno[3,2-b]pyridine-2-carboxamido)propanoate]: the apical-to-basolateral permeability (Papp A→B) at 60 min, 0.5 µM turned out to be 8.19 ×10⁻⁶ cm/s.
With `Cc1ccnc2cc(C(=O)NC[C@@H](N)C(=O)OCC3CC3)sc12` [Compound 2j, Cyclopropylmethyl (R)-2-amino-3-(7-methylthieno[3,2-b]pyridine-2-carboxamido)propanoate], the Papp A→B at 60 min, 0.5 µM came out at 11.9 ×10⁻⁶ cm/s.
For the molecule `COCCOC(=O)[C@H](N)CNC(=O)c1cc2nccc(C)c2s1` [Compound 2k, 2-Methoxyethyl (R)-2-amino-3-(7-methylthieno[3,2-b]pyridine-2-carboxamido)propanoate], the Papp A→B at 60 min, 0.5 µM amounted to 4.77 ×10⁻⁶ cm/s.
On to `Cc1ccnc2cc(C(=O)NC[C@@H](N)C(=O)OCCC(C)C)sc12` [Compound 2l, Isopentyl (R)-2-amino-3-(7-methylthieno[3,2-b]pyridine-2-carboxamido)propanoate], for which the Papp A→B at 60 min, 0.5 µM was found to be 6.5 ×10⁻⁶ cm/s.
In the case of `Cc1ccnc2cc(C(=O)NC[C@@H](N)C(=O)OCc3ccccc3)sc12` [Compound 2m, Benzyl (R)-2-amino-3-(7-methylthieno[3,2-b]pyridine-2-carboxamido)propanoate], the Papp A→B at 60 min, 0.5 µM was 8.68 ×10⁻⁶ cm/s.
In the case of `Cc1ccnc2cc(C(=O)NC[C@@H](N)C(=O)OC3CCCCC3)sc12` [Compound 2n, Cyclohexyl (R)-2-amino-3-(7-methylthieno[3,2-b]pyridine-2-carboxamido)propanoate], the apical-to-basolateral permeability (Papp A→B) at 60 min, 0.5 µM is 5.86 ×10⁻⁶ cm/s.
Regarding `Cc1ccnc2cc(C(=O)NC[C@@H](N)C(=O)OCC(=O)N3CCCC3)sc12` [Compound 2p, 2-Oxo-2-(pyrrolidin-1-yl)ethyl (R)-2-amino-3-(7-methylthieno[3,2-b]pyridine-2-carboxamido)propanoate], the Papp A→B at 60 min, 0.5 µM was 0.81 ×10⁻⁶ cm/s.
